Laboratory results: publication PMC5399312 (Journal of Experimental & Clinical Cancer Research : CR, 2017)
Like-named read-outs stand apart in the source and are kept apart here.

Assays:
HK2 [1] = target: T1, HK2 (Homo sapiens, UniProt P52789); test: Microscale thermophoresis (MST) assay; type: binding; conditions: labelled HK2 20 nM, 25 °C
T1 construct: made in house; host or cells: E. coli BL21 (DE3)
T1 sequence (P52789 1-917): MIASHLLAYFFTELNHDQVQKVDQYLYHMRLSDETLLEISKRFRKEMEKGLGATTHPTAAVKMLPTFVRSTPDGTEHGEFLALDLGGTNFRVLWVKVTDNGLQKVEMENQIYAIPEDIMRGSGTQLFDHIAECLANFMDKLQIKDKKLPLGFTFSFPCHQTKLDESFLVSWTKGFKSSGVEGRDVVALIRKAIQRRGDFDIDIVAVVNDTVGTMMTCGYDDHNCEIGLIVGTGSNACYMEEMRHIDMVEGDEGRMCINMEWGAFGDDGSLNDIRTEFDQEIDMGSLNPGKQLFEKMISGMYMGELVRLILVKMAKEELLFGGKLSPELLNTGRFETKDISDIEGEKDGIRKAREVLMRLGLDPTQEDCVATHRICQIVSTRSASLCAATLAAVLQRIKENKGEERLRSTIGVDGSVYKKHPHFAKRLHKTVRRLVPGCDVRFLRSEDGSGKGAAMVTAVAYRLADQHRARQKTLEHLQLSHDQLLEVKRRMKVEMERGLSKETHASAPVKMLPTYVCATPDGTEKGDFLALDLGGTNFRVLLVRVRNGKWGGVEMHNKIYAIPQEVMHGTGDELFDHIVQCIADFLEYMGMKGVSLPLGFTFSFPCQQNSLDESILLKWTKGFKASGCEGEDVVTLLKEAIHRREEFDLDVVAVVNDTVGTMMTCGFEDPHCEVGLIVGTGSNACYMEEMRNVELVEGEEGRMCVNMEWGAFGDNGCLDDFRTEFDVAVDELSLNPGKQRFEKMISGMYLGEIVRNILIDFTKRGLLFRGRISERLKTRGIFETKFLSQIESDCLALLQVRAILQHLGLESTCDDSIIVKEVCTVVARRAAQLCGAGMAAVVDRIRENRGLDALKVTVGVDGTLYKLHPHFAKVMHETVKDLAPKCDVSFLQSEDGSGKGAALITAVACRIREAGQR
Protocol: MST was used to analyze the binding affinity between potential ligands and receptors. The purified HK2 was labeled with the Monolith NT™ Protein Labeling Kit RED (Cat # L001) according to the supplied labeling protocol. Labelled HK2 was kept constant at 20 nM, and all tested samples were 1:1 diluted in a 20 mM HEPES (pH 7.4) and 0.05 (v/v) % Tween-20. After 10 min incubation at room temperature, samples were loaded into Monolith™ standard-treated capillaries. And the thermophoresis was measured at 25 °C after 30 min incubation on a Monolith NT.115 instrument (Germany). Furthermore, laser power was set to 20% or 40% using 30 sec on-time. The LED power was set to 100%. The dissociation constant Kd values were fitted by using the NTAnalysis software.

[2] = set-up: method as in PMID 17551814; conditions: dose range of 500-2000 mg/Kg in mice; cited from earlier work
HK2 [3] = target: T1, HK2; test: In vitro enzyme inhibition assay (G6P-DH coupled, NADH 340 nm); type: biochemical
Protocol: Then 85 μL assay mix containing 100 mM Tris HCl pH 8.0, 5 mM MgCl2, 200 mM Glucose, 0.8 mM ATP, 1 mM NAD^+, 0.25 Units of G6P-DH, was added.

[4] = Cytotoxicity test (CCK-8); type: cell-based
Protocol: (§1) Met was used as a positive control. All experiments were performed in triplicate.

HCT116 = test: Cytotoxicity test (CCK-8); type: cell-based; conditions: Homo sapiens, HCT-116; HCT116, 48 h
Protocol: as §1

Lovo = test: Cytotoxicity test (CCK-8); type: cell-based; conditions: Homo sapiens, 48 h
Protocol: as §1

MCF-7 = test: Cytotoxicity test (CCK-8); type: cell-based; conditions: Homo sapiens, MCF7; MCF-7, 48 h
Protocol: as §1

SMMC-7721 = test: Cytotoxicity test (CCK-8); type: cell-based; conditions: Homo sapiens, SMMC-7721, 48 h
Protocol: as §1

SW480 = test: Cytotoxicity test (CCK-8); type: cell-based; conditions: Homo sapiens, SW480, 48 h
Protocol: as §1

[5] = recombinant HK2, n.i means no enzyme inhibition
[6] = recombinant HK2, n.i means no enzyme inhibition, read-out: Enzyme IC50

## O=CC[C@@H](O)[C@H](O)[C@H](O)CO [2-DG, 2-Deoxyglucose]
HK2 [1]
  Kd: No binding affinity
[2]
  therapeutic activity as a single agent: does not have significant therapeutic activity

## O=C(O)C(=O)CBr [3-BrPA, 3-Bromopyruvate]
HK2 [1]; read-out: Kd
  Kd: 0.742 ± 0.0968 mM

## [H]/N=C(\N/C(=N/[H])NCCCCCCNC(=N)NC(=N)Nc1ccc(Cl)cc1)Nc1ccc(Cl)cc1 [Chlorhexidine]
HK2 [3]; [5]
  Enzyme IC50: n.i

## O=C(CO)[C@@H](O)[C@H](O)[C@H](O)CO [D-Fructose]
HK2 [3]; [5]
  Enzyme IC50: n.i ^C

## N[C@H]1C(O)O[C@H](CO)[C@@H](O)[C@@H]1O (stereo partly drawn) [D-Glucosamine]
HK2 [3]; [6]
  IC50: > 1 mM

## CNC[C@H](O)[C@@H](O)[C@H](O)[C@H](O)CO [Meglumine]
HK2 [3]
  IC50: > 1 mM

## CN(C)C(=N)N=C(N)N [Metformin]
HK2 [1]; read-out: Kd
  Kd: 3.93 ± 0.282 mM
[4]; African green monkey, Vero normal cells
  IC50 at 48 h: > 1 mM
[4]; human, LO2 normal cells
  IC50 at 48 h: > 1 mM
HCT116
  IC50: > 1 mM
Lovo
  IC50: > 1 mM
MCF-7
  IC50: > 1 mM
SMMC-7721
  IC50: > 1 mM
SW480
  IC50: > 1 mM

## NCCC(O)(P(=O)(O)O)P(=O)(O)O [Pamidronate]
HK2 [3]; [5]
  Enzyme IC50: n.i

## O=C(O)c1cc(/N=N/c2ccc(S(=O)(=O)Nc3ccccn3)cc2)ccc1O [Sulfasalazine]
HK2 [3]; [6]
  IC50: > 1 mM

## O=C1O[C@H]([C@@H](O)CO)C(O)=C1O [Vitamin C]
HK2 [3]; [6]
  IC50: > 1 mM
